# Experimental data as given in patent US20240165089A1, “METHOD FOR TREATING MYOPIA WITH VINPOCETINE” (EYE HOSPITAL, WENZHOU MEDICAL UNIVERSITY, priority 2021, published 2024).
# Several values for one entry are separate records, joined by “and”; a condition that tells them apart may be missing. Identical values can stand only once.
# How the values were obtained:
# [1] = test system: form deprivation myopia model of guinea pigs; test: FDM guinea pig model, subconjunctival injection of AVA; format: in vivo; settings: 1 week
# Description: The modeling method for myopic individuals was the same as other embodiments of the present invention. […] No other active substances or excipients were added.
# [2] = test system: form deprivation myopia model of guinea pigs; test: FDM guinea pig model, eye drops (non-invasive administration); format: in vivo
# Description: The purpose of this experiment was to evaluate the effect of vinpocetine on myopia through non-invasive administration. All tested drugs were formulated into eye drops. […] No other active substances or excipients were added to the above eye drops.
# [3] = test system: form deprivation myopia model of guinea pigs; test: FDM guinea pig model, subconjunctival injection, salmeterol/tiotropium/vinpocetine; settings: 0.1% atropine, 2 weeks
# Text: The form deprivation myopia model of guinea pigs described in the present invention was used to evaluate the efficacy. […] On the first day of the experiment, guinea pigs were subjected to form deprivation at 8 a.m. using a mask method, with the right eye covered (experimental eye) and the left eye uncovered (contralateral eye). Starting from the day of modeling, solvents or drugs for the corresponding groups were given to the experimental eyes at 9-10 a.m. every day by eyeball subconjunctival injection at an injection volume of 100 μL, once a day for 2 weeks. The refraction and axial parameters of the animals were detected before the start of the efficacy experiment and at the end of the experiment. All data collection and processing methods were the same as in other embodiments of the present invention. The statistical basis was the difference between the experimental eye and the contralateral eye of the same subject individual.
# [4] = 0.1% atropine eye drops, 2 weeks
# [5] = 0.1% atropine eye drops, 2 weeks (rounded and actual value)
SMILES,axial length difference between the eyes ([1]; AVA 1 μM) [mm],inhibition rate for the axial length ([1]; AVA 1 μM) [%],inhibition rate for the vitreous chamber depth ([1]; AVA 1 μM) [%],ocular abnormalities ([1]; AVA 1 μM),refraction inhibition rate ([1]; AVA 1 μM) [%],vitreous chamber depth difference between the eyes ([1]; AVA 1 μM) [mm],"refraction difference between the eyes ([1]; FDM, AVA 1 μM subconjunctival 100 μL once a day) [D]","therapeutic effect on the guinea pig myopia model ([2]; 0.01% atropine eye drops, same administration conditions)","inhibition rate for the vitreous chamber depth [2, 4] [%]","refraction inhibition rate [2, 4] [%]","axial length difference between the eyes [2, 5]","vitreous chamber depth difference between the eyes [2, 5]","pupil dilation ([2]; 0.1% atropine eye drops, during administration)","refraction difference between the eyes (model-induced myopia) ([2]; FDM, 0.1% atropine eye drops 25 μL twice a day, 2 weeks) [D]",efficacy as positive control ([1]; 0.1% atropine subconjunctival),pupil dilation ([1]; 0.1% atropine subconjunctival),"corneal curvature (RCC), anterior chamber depth (ACD) and lens thickness (LT) [3]",pupil dilation ([3]; subconjunctival),"refraction change towards negative, axial length elongation and vitreous chamber depth increase vs negative control ([3]; FDM, subconjunctival)"
"CC[C@@]12C=C(C(=O)O)n3c4c(c5ccccc53)CCN(CCC1)[C@H]42 [AVA, apovincaminic acid]",0.07±0.03,36.4,34.7,no ocular abnormalities were observed,39.6,0.06±0.02,−2.65±1.18,–,–,–,–,–,–,–,–,–,–,–,–
CN1[C@@H]2CC[C@H]1C[C@@H](OC(=O)C(CO)c1ccccc1)C2 (stereo partly shown) [atropine],–,–,–,–,–,–,–,did not have any therapeutic effect,21.8,40.0,0.11±0.05 mm and 0.1093±0.0530 mm,0.11±0.05 mm and 0.1107±0.0502 mm,Adverse reactions of pupil dilation occurred,−3.93±1.75,showed its due efficacy,Pupil dilation occurred,not affected by the drug,pupil dilation occurred,significantly inhibited
